Entries after “also recorded” stand apart in the source; their conditions may differ.
Key:
[1] = Dynamic vapour sorption (DVS) with XRPD of retained solid; type: physicochemical
Procedure: 10-20 mg of sample was placed into a mesh vapour sorption balance pan and loaded into a DVS-1 dynamic vapour sorption balance by Surface Measurement Systems. The sample was subjected to a ramping profile from 40-90% relative humidity (RH) at 10% increments, maintaining the sample at each step until a stable weight had been achieved (dm/dt 0.004%, minimum step length 30 minutes, maximum step length 500 minutes) at 25° C. After completion of the sorption cycle, the sample was dried using the same procedure to 0% RH and then a second sorption cycle back to 40% RH. Two cycles were performed. The weight change during the sorption/desorption cycles were plotted, allowing for the hygroscopic nature of the sample to be determined. XRPD analysis was then carried out on any solid retained.

[2] = Primary crystallization screen: XRPD before and after drying at 40° C.; type: physicochemical; design: key to XRPD Pattern Post-Thermal Cycling / XRPD Pattern Anti-Solvent Addition / XRPD Pattern Evaporation / XRPD Pattern Post-Thermal Cycling (dried): 1—Free base Pattern 1; 2—Free base Pattern 2; 3—Free base Pattern 3; 4—Free base Pattern 4; S—Potential Salt Pattern 1; A—Amorphous; C—Counterion present; *—Poorly crystalline; t—Results obtained from temperature cycling; e—Results obtained from evaporation
Procedure: • 34×40 mg of Compound A was weighed into vials before the selected solvents were added to prepare slurries, where possible. See Table 29 for a list of solvent systems used and the volume of solvent used. • Stirrer bars were added to the vials, before the vials were sealed and temperature cycled with stirring between 5° C. and 40° C. The heating rate was 0.1° C./min and the samples were held at 5° C. and 40° C. for 2 hours. • After temperature cycling for 4 days, observations were made (see Table 29). Slurries were centrifuge filtered and the solids were analyzed by XRPD • The solids were dried at 40° C. for approximately 18 h before being re-analyzed by XRPD. • Saturated solutions were then split into 3 vials for the following experiments • Evaporation at ambient temperature • Cooling (5° C.). • Where no solids were obtained after 72 hours, the samples were moved to the freezer at −20° C. for further cooling. • Where no solids were obtained from further cooling, the samples were allowed to evaporate at ambient temperature. • Anti-solvent addition at ambient temperature. • Where no solids were obtained after 72 hours the samples were moved to the freezer at −20° C. to encourage crystallization. • Where no solids were obtained from cooling, the samples were allowed to evaporate at ambient temperature.

[3] = Acetonitrile:Water (75:25% v/v)
[4] = Dichloromethane:Methanol (50:50% v/v)
[5] = Dichloromethane:Methanol (75:25% v/v)

## COc1cc(O[C@H]2C(C)(C)[C@H](NC(=O)c3ccc(N4CCC(CN5CCN(c6ccc(C(=O)N[C@H]7CCC(=O)NC7=O)c(F)c6)CC5)CC4)cc3)C2(C)C)ccc1C#N [Compound A, 4-(4-((1-(4-(((1R,3R)-3-(4-cyano-3-methoxyphenoxy)-2,2,4,4-tetramethylcyclobutyl)carbamoyl)phenyl)piperidin-4-yl)methyl)piperazin-1-yl)-N—((S)-2,6-dioxopiperidin-3-yl)-2-fluorobenzamide]
[1]
  form by XRPD post DVS: Crystallization was not observed; also recorded: remained amorphous by XRPD
[1]; 25° C.
  hygroscopic nature (DVS): hygroscopic
[1]; at 90% RH, 25° C.
  average mass uptake of water (DVS): 4.08 wt. %
  mass uptake of water (DVS), equivalents: 1.91 eq.
[2]; 1,4-Dioxane
  XRPD Pattern Anti-Solvent Addition: A
  XRPD Pattern Cooling: A e
  XRPD Pattern Evaporation: A x
  XRPD Pattern Post-Thermal Cycling: A
  XRPD Pattern Post-Thermal Cycling (dried): A *
[2]; 1-Propanol
  XRPD Pattern Evaporation: A
[2]; 2-Butanone (MEK)
  XRPD Pattern Evaporation: 1
[2]; Acetone:Water (90:10% v/v)
  XRPD Pattern Evaporation: 2
[2]; Acetonitrile
  XRPD Pattern Anti-Solvent Addition: A x
  XRPD Pattern Evaporation: A +
  XRPD Pattern Post-Thermal Cycling: 1
  XRPD Pattern Post-Thermal Cycling (dried): 1
[2]; [3]
  XRPD Pattern Evaporation: 6 (6—Free base Pattern 6)
  XRPD Pattern Post-Thermal Cycling: 6 (6—Free base Pattern 6)
  XRPD Pattern Post-Thermal Cycling (dried): 6 (6—Free base Pattern 6)
[2]; Anisole
  XRPD Pattern Post-Thermal Cycling: 5 (5—Free base Pattern 5)
  XRPD Pattern Post-Thermal Cycling (dried): 8 (8—Free base Pattern 8)
[2]; Butyl acetate
  XRPD Pattern Post-Thermal Cycling: 1
  XRPD Pattern Post-Thermal Cycling (dried): 1
[2]; Dichloromethane
  XRPD Pattern Post-Thermal Cycling: 6 (6—Free base Pattern 6)
  XRPD Pattern Post-Thermal Cycling (dried): 6 (6—Free base Pattern 6)
[2]; [4]
  XRPD Pattern Post-Thermal Cycling: 2
  XRPD Pattern Post-Thermal Cycling (dried): 2
[2]; [5]
  XRPD Pattern Anti-Solvent Addition: A
  XRPD Pattern Cooling: A e
[2]; Diethyl ether
  XRPD Pattern Evaporation: A x
[2]; Ethanol
  XRPD Pattern Evaporation: A x
[2]; Ethanol:Water (50:50% v/v)
  XRPD Pattern Evaporation: A x
[2]; Ethyl acetate
  XRPD Pattern Post-Thermal Cycling: 1
  XRPD Pattern Post-Thermal Cycling (dried): 1
[2]; Isopropyl acetate
  XRPD Pattern Evaporation: A x
[2]; Methanol
  XRPD Pattern Cooling: A e
  XRPD Pattern Evaporation: A x
[2]; Methylisobutyl ketone
  XRPD Pattern Evaporation: A x
  XRPD Pattern Post-Thermal Cycling: 1
  XRPD Pattern Post-Thermal Cycling (dried): 1
[2]; N,N′-Dimethylacetamide
  XRPD Pattern Anti-Solvent Addition: 1
[2]; N,N′-Dimethylformamide
  XRPD Pattern Anti-Solvent Addition: 1
  XRPD Pattern Cooling: A e
  XRPD Pattern Evaporation: 1
[2]; Tetrahydrofuran
  XRPD Pattern Post-Thermal Cycling: 1
  XRPD Pattern Post-Thermal Cycling (dried): 1
[2]; Tetrahydrofuran:Water (98:2% v/v)
  XRPD Pattern Anti-Solvent Addition: A
[2]; Toluene
  XRPD Pattern Post-Thermal Cycling: 7 (7—Free base Pattern 7)
  XRPD Pattern Post-Thermal Cycling (dried): 8 (8—Free base Pattern 8)
[2]; Water
  XRPD Pattern Post-Thermal Cycling: A
  XRPD Pattern Post-Thermal Cycling (dried): A
